# Measurements taken from publication PMC8708875 (Pharmaceutics, 2021).
# Test system: epididymal adipose tissue and tibial skeletal muscle of WT mice
# Test: mRNA expression of energy metabolism genes in tissues after ip administration (qPCR)
# Type: in vivo, mouse
# Details: 600 µg/kg ip
# Description: Real-time PCR (qPCR) experiments were performed to evaluate the mRNA expression levels, at basal and under stimulus, for peroxisome proliferator activator receptor gamma (PPARγ), peroxisome proliferator activator receptor alpha (PPARa), cAMP responsive element binding protein 1 (Creb1), aldolase A, fructose-bisphosphate (ALDOA), cytochrome c oxidase subunit IV isoform 1 (Cox4i1), phosphoglycerate mutase 2 (PGAM2), troponin I, skeletal, fast 2 (TNNI2), […] (TNNT3), small muscle protein X-linked (SMPX), myosin, […] (MYH1), insulin-growth factor 1 (IGF1), Glucose transporter 4 (GLUT4), and lipoprotein lipase (LPL). Primers sequences are described in Supplementary Materials (Table S1). […] Quantitative PCRs were performed using the Prism 7900 sequence detection system (Applied Biosystems, Foster City, CA, USA) with 100 nM primer and 20 ng cDNA. The expression of mRNA targets was normalized by expression of gene glyceraldehyde 3-phosphate dehydrogenase (GAPDH) or hipoxantina-guanina fosforibosiltransferase (HPRT) and expressed as relative values using the 2 DDCt method. […]
# Figure 6 Ric4 stimulated mRNA expression levels of genes related to energy metabolism. WT mice were treated with vehicle (Control) or Ric4 (600 ug/kg, ip) and gene expression was evaluated by qPCR. […]
sequence,measurement,value
"LASVSTVLTSKYR [Ric4, intracellular peptide derived from hemoglobin alpha subunit, last 13 C-terminal amino acids]",GLUT4 mRNA levels in epididymal adipose tissue,increased
same,"expression levels of genes related to energy metabolism in epididymal adipose tissue (LPL, PPARγ, PPARa, GLUT4, IGF1)",stimulated the expression levels
